The results in this text go back to PMC3813382 (The Journal of General Physiology, 2013).

The EC50 is the concentration giving half of the maximal effect. Read a high EC50 as weaker potency.

The target of this experiment is T1, E275D Slo2.1 channels (Homo sapiens, UniProt Q6UVM3, E275D).
T1 sequence (Q6UVM3 1-1135 E275D): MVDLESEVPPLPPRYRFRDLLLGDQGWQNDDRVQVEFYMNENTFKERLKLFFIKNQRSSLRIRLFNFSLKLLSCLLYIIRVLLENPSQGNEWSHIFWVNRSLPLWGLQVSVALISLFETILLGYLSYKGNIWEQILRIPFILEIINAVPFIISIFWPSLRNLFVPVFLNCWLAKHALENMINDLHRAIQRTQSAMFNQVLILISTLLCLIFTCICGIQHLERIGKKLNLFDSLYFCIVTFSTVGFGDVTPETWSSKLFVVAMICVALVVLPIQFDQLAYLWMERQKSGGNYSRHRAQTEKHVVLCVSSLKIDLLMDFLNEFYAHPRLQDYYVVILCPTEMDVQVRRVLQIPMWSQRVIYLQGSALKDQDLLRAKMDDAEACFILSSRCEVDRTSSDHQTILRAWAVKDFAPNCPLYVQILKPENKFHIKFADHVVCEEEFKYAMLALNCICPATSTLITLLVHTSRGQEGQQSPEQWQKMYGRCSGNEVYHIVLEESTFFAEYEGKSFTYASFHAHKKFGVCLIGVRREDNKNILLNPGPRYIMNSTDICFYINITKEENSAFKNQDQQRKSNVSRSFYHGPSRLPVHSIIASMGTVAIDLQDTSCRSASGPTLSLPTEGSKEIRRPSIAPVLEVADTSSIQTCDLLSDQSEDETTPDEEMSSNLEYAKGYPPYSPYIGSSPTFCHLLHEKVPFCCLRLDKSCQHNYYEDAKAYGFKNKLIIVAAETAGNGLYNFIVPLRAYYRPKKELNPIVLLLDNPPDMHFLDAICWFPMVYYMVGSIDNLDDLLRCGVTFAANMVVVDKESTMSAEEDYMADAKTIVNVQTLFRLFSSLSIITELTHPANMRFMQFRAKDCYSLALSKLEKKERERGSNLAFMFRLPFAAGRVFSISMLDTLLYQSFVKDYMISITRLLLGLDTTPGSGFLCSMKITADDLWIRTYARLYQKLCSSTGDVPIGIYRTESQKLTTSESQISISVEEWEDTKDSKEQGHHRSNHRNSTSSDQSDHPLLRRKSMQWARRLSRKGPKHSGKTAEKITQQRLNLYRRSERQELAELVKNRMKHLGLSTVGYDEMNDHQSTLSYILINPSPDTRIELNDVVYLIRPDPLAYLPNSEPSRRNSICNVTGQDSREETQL
As to the kind of experiment: Activation of ISlo2.1 by NFA, two-electrode voltage clamp in oocytes. In kind it is cell-based. In general terms: Two-electrode voltage clamp holds a large cell at a set potential and records current.

Consider `O=C(O)c1cccnc1Nc1cccc(C(F)(F)F)c1` [NFA, niflumic acid], for which a half-maximal response (EC50) required 192 µM. In addition, under “E275D”, the “Hill coefficient nH of NFA activation” value was determined as 1.08 ± 0.09. Moreover, the “EC50 for E275D lower than EC50 for WT channels” value (E275D vs WT) is recorded as 11 fold. For the same compound, the “maximal increase in current at 0 mV” value (E275D, 3 mM NFA (maximally effective concentration)) is reported as approximately 2.5 fold.
